Laboratory results: patent publication US10179770B2, “Quinolines derivatives as novel anticancer agents” (GENOSCIENCE PHARMA, priority 2013, dated 2019)
Counter-ions that a name gives are not always drawn. Values belong to the compound of their own block, whether it stands above or below them.

How the values were obtained:
A-375 = assay: EC50 determination in cancer cell lines; assay type: cell-based, human; details: Homo sapiens, A-375, 72 h
Method: (§1) Compounds were added at different concentrations to each well, and cell cultures were incubated for 72 h. Vehicle (DMSO or H2O) was used as a control, and all compounds were tested in a constant percentage of vehicle. Cell outgrowth was measured using for adherent cells CellTiter […] Aqueous One Solution Cell Proliferation Assay (Promega) and for cell suspension, Sulforhodamine B colorimetric assay as described in Vichai et al. (Vichai, V. and Kirtikara, K. Nat. Protoc. 2006 (1) 1112-1116). Absorbance was measured using an Infinite F200 Pro or Sunrise TECAN plate reader.
(§2) The human melanoma cell line A375, colorectal carcinoma cell line HCT-116, hepatocellular carcinoma cell line HepG2 were cultured in Dulbecco's modified Eagle's medium supplemented with 10% fetal bovine serum and 1% Penicillin-Streptomycin. The human melanoma cell lines SK-MEL-28 and SK-MEL-5 were cultured in Minimum Essential Medium. The colorectal carcinoma cell lines HT-29 and Colo205 were respectively cultured in Mc Coy's and RPMI media. The human leukemia cell lines MV4-11 and KG-1 were cultured in Iscove's Modified Dulbecco's Media. The human leukemia cell line MOLM-14 was cultured in Minimum Essential Medium Alpha Medium supplemented with 10% Fetal Bovine Serum and 1% Penicillin-Streptomycin All culture media were supplemented with 10% fetal bovine serum and 1% Penicillin-Streptomycin except for MV4-11 cell line 20% fetal bovine serum and 1% Penicillin-Streptomycin. All the cell lines were maintained at 37° C. with 5% C02.
(§3) Briefly, adherent cells, A375, HCT-116, HepG2, SK-MEL-28, SK-MEL-5, HT-29 and Colo205 cells were respectively plated at 800, 5,000, 7,000, 2,500, 3,000-5,000, 5,000 or 5,000 cells per well onto 96-well plates in 90 μL of media per well and were allowed to grow overnight before the assay. For MV4-11 and KG-1 cells that grow in suspension, 40,000-60,000 cells were plated onto 96-well plates immediately before the assay. MOLM-14 cell line, that grow in suspension, 30,000 cells were plated onto 96-well plates immediately before the assay.
(§4) The cell growth measure was the same as described in example 51.
(§5) The experimental data are analyzed using a computer program, Graphpad Prism (GraphPad Software, Inc. La Jolla, Calif.) and EC50 values were determined as the dose of compound required to reduce absorbance values to 50% of the signal obtained for vehicle treated cell cultures and were a mean of at least two independent experiments except for EC50 values with (*) where […].

HepG2 = assay: EC50 determination in cancer cell lines; assay type: cell-based, human; details: Homo sapiens, HepG2, 72 h
Method: as §1, §2, §3, §4, §5

MOLM-14 [1] = assay: Cell proliferation assay at 10 μM; assay type: cell-based, human; details: Homo sapiens, MOLM-14, 72 h, read-out: Cell viability observed at 10 μM
Method: (§6) The human melanoma cell line A375 and colorectal carcinoma cell line HCT-116 were cultured in Dulbecco's modified Eagle's medium supplemented with 10% fetal bovine serum and 1% Penicillin-Streptomycin. The human leukemia cell line MOLM-14 was cultured in Minimum Essential Medium Alpha Medium supplemented with 10% Fetal Bovine Serum and 1% Penicillin-Streptomycin. All the cell lines were maintained at 37° C. with 5% CO2.
For MOLM-14 cell line, which grows in suspension, 30,000 cells were plated onto 96-well plates immediately before the assay.
as §1
(§7) In each experiment, each point represents the average of two replicates in cell culture.
(§8) Results are presented in Table 1 below for concentrations of 10 μM of tested compounds.

Colo205 = assay: EC50 determination in cancer cell lines; assay type: cell-based; details: Homo sapiens, COLO 205, 72 h, * n>2
Method: as §1, §2, §3, §4, §5

HT-29 = assay: EC50 determination in cancer cell lines; assay type: cell-based; details: Homo sapiens, 72 h, * n>2
Method: as §1, §2, §3, §4, §5

MV4-11 = assay: EC50 determination in cancer cell lines; assay type: cell-based; details: Homo sapiens, 72 h
Method: as §1, §2, §3, §4, §5

KG-1 = assay: EC50 determination in cancer cell lines; assay type: cell-based; details: Homo sapiens, 72 h
Method: as §1, §2, §3, §4, §5

MOLM-14 [2] = assay: EC50 determination in cancer cell lines; assay type: cell-based; details: Homo sapiens, 72 h
Method: as §1, §2, §3, §4, §5

SK-MEL-5 = assay: EC50 determination in cancer cell lines; assay type: cell-based; details: Homo sapiens, 72 h
Method: as §1, §2, §3, §4, §5

SK-MEL-28 = assay: EC50 determination in cancer cell lines; assay type: cell-based; details: Homo sapiens, 72 h
Method: as §1, §2, §3, §4, §5

HCT-116 [3] = assay: EC50 determination in cancer cell lines; assay type: cell-based, human; details: Homo sapiens, HCT-116, 72 h
Method: as §1, §2
Briefly, adherent cells, A375, HCT-116, HepG2, SK-MEL-28, SK-MEL-5, HT-29 and Colo205 cells were respectively plated at 800, 5,000, 7,000, 2,500, 3,000-5,000, 5,000 or 5,000 cells per well onto 96-well plates in 90 μL of media per well and were allowed to grow overnight before the assay. For MV4-11 and KG-1 cells that grow in suspension, 40,000-60,000 cells were plated onto 96-well plates immediately before the assay. MOLM-14 cell line, that grow in suspension, 30,000 cells were plated onto 96-well plates immediately before the assay. […]
as §5

HCT-116 [4] = assay: Cell proliferation assay at 10 μM; assay type: cell-based; details: Homo sapiens, HCT-116, 72 h, read-out: Cell viability observed at 10 μM
Method: as §6
(§9) Briefly, adherent cells, A375 and HCT-116 cells were respectively plated at 800 or 5,000 cells per well onto 96-well plates in 90 μL of media per well and were allowed to grow overnight before the assay.
as §1, §7, §8

A375 = assay: Cell proliferation assay at 10 μM; assay type: cell-based, human; details: Homo sapiens, A-375, 72 h, read-out: Cell viability observed at 10 μM
Method: as §6, §9, §1, §7, §8

[5] = tested on: patient derived acute myeloid leukemia (AML) cell lines; assay: Cell growth inhibition assay, patient derived AML cells; assay type: cell-based, human; details: Homo sapiens, 48 h
Method: The patient derived acute myeloid leukemia (AML) cells were obtained after written informed consent under the Institut Paoli Calmette (IPC) institutional review board approval and under the strict compliance of the Helsinki declaration on medical research involving human subjects. […] Each compound was added at different concentrations (combinations of six concentrations) to each well, and cell cultures were incubated for 48 h. Vehicle (H2O) was used as a control, and all compounds were tested in a constant percentage of vehicle. Cell outgrowth was measured using the CellTiter-Glo luminescent cell viability assay as described by the manufacturer (Promega, Ref G7571 Madison, Wis., USA) using a Centro (Berthold, France) plate reader. In each experiment, each point represents the average of triplicates in cell culture. The experimental data are analyzed using a computer program, Graphpad Prism (GraphPad Software, Inc.

[6] = tested on: PBMC Healthy voluntary donor; assay: Cell growth inhibition assay, PBMC of healthy donors; assay type: cell-based, human; details: Homo sapiens, PBMC
Method: Each compound was added at different concentrations (combinations of six concentrations) to each well, and cell cultures were incubated for 48 h. Vehicle (H2O) was used as a control, and all compounds were tested in a constant percentage of vehicle. Cell outgrowth was measured using the CellTiter-Glo luminescent cell viability assay as described by the manufacturer (Promega, Ref G7571 Madison, Wis., USA) using a Centro (Berthold, France) plate reader. In each experiment, each point represents the average of triplicates in cell culture. The experimental data are analyzed using a computer program, Graphpad Prism (GraphPad Software, Inc.

B16F10 = assay: CellTiter-Glo cell viability assay (example 57); assay type: cell-based, human; details: Mus musculus, B16-F10; B16F10 (Melanoma); Cell Titer-Glo; 72 h

Structure (SMILES): Clc1ccc2c(NC3CCN(Cc4ccccc4)CC3)cc(-c3ccccc3)nc2c1 [XXVIII-2, 7-chloro-2-phenyl-4-[(N-benzylpiperidin-4-yl)-amino]quinoline hydrochloride salt]
EC50 (A-375): 9 µM
EC50 (HepG2): 26 µM
viability at 10 µM (MOLM-14 [1]): < 20%
EC50 (Colo205): 9 µM
EC50 (HT-29): 13 µM
EC50 (MV4-11): 5 µM
EC50 (KG-1): 10 µM
EC50 (MOLM-14 [2]): 10 µM
EC50 (SK-MEL-5): 9 µM
EC50 (SK-MEL-28): 7 µM
EC50 (HCT-116 [3]): 12 µM
viability at 10 µM (HCT-116 [4]): < 20%
viability at 10 µM (A375): < 20%

Structure (SMILES): CC(C)(C)NC1CCN(c2cc(-c3ccc(Cl)c(Cl)c3)nc3ccccc23)CC1 [XIV-8, 2-(3,4-dichloro-phenyl)-4-(4-N-tert-butylamino-piperidin-1-yl)quinoline dihydrochloride]
EC50 ([5]; Patient 3, subtype Tri8): 8 µM
EC50 ([5]; Patient 8, subtype FLT3−): 25 µM
EC50 ([5]; Patient 9, subtype FLT3+): 40 µM
EC50 ([5]; Patient 10, subtype Inv 3): 20 µM
EC50 ([5]; Patient 12, subtype 5 & 7): > 40 µM
EC50 ([5]; Patient 13, subtype MLL): > 40 µM
EC50 ([5]; Patient 16, subtype Inv 3): 17 µM
EC50 (A-375): 6 µM
viability at 10 µM (MOLM-14 [1]): < 20%
EC50 (MV4-11): 4 µM
EC50 (KG-1): 4 µM
EC50 (MOLM-14 [2]): 5 µM
EC50 (SK-MEL-5): 6 µM
EC50 (SK-MEL-28): 4 µM
EC50 (HCT-116 [3]): 5 µM
viability at 10 µM (HCT-116 [4]): < 20%
viability at 10 µM (A375): < 20%
EC50 ([6]; PBMC Healthy voluntary donor 1): 31 µM
EC50 ([6]; PBMC Healthy voluntary donor 2): 14 µM

Structure (SMILES): Clc1ccc2c(CNC3CCN(Cc4ccccc4)CC3)cc(-c3ccccc3)nc2c1 [XXXIII-2, 7-chloro-2-phenyl-4-[(N-benzyl-piperidin-4-yl)aminomethyl]quinoline hydrochloride salt]
EC50 (A-375): 9 µM
EC50 (HepG2): 16 µM
viability at 10 µM (MOLM-14 [1]): 40 to 60%
EC50 (Colo205): 9 µM
EC50 (HT-29): 14 µM
EC50 (MV4-11): 5 µM
EC50 (KG-1): 8 µM
EC50 (MOLM-14 [2]): 9 µM
EC50 (SK-MEL-5): 6 µM
EC50 (SK-MEL-28): 6 µM
EC50 (HCT-116 [3]): 13 µM
viability at 10 µM (HCT-116 [4]): 20 to 40%
viability at 10 µM (A375): 40 to 60%

EC50 (B16F10): 0.2 µM
Structure (SMILES): COc1cccc2c1C(=O)c1c(O)c3c(c(O)c1C2=O)C[C@@](O)(C(=O)CO)C[C@@H]3O[C@H]1C[C@H](N)[C@H](O)[C@H](C)O1 [Doxorubicine, doxorubicin]
